Assays:
Type in all cases: in vivo
[1] = test system: Lolium perenne (LOLPE); assay: B5 Pre-Emergence Efficacy—Test 2; design: key: 5-point scale: 5=80-100%, 4=60-79%, 3=40-59%, 2=20-39%, 1=0-19% damage; conditions: 250 g/ha, evaluated after 13 days
Procedure: (§1) B5 Pre-Emergence Efficacy—Test 2 Seeds of a variety of test species were sown in standard soil in pots: Solanum nigrum (SOLNI), Amaranthus retoflexus (AMARE), Setaria faberi (SETFA), Echinochloa crus-galli (ECHCG), Ipomoea hederacea (IPOHE), Lolium perenne (LOLPE). After cultivation for one day (pre-emergence) under controlled conditions in a glasshouse (at 24/16° C., day/night; 14 hours light; 65% humidity), the plants were sprayed with an aqueous spray solution derived from the formulation of the technical active ingredient in acetone/water (50:50) solution containing 0.5% Tween 20 (polyoxyethelyene sorbitan monolaurate, CAS RN 9005-64-5). Compounds are applied at 250 g/ha. The test plants were then grown in a glasshouse under controlled conditions (at 24/16° C., day/night; 14 hours light; 65% humidity) and watered twice daily. After 13 days, the test is evaluated for the percentage damage caused to the plant. The biological activities are assessed on a five point scale (5=80-100%; 4=60-79%; 3=40-59%; 2=20-39%; 1=0-19%). A blank value in the table is indicative that the compound was not tested on that species.

[2] = test system: Echinochloa crus-galli (ECHCG); assay: B5 Pre-Emergence Efficacy—Test 2; design: key: 5-point scale: 5=80-100%, 4=60-79%, 3=40-59%, 2=20-39%, 1=0-19% damage; conditions: 250 g/ha, evaluated after 13 days
Procedure: as §1

[3] = test system: Ipomoea hederacea (IPOHE); assay: B5 Pre-Emergence Efficacy—Test 2; design: key: 5-point scale: 5=80-100%, 4=60-79%, 3=40-59%, 2=20-39%, 1=0-19% damage; conditions: 250 g/ha, evaluated after 13 days
Procedure: as §1

[4] = test system: Setaria faberi (SETFA); assay: B5 Pre-Emergence Efficacy—Test 2; design: key: 5-point scale: 5=80-100%, 4=60-79%, 3=40-59%, 2=20-39%, 1=0-19% damage; conditions: 250 g/ha, evaluated after 13 days
Procedure: as §1

[5] = test system: Amaranthus retoflexus (AMARE); assay: B5 Pre-Emergence Efficacy—Test 2; conditions: 250 g/ha, evaluated after 13 days
Procedure: as §1

[6] = test system: Solanum nigrum (SOLNI); assay: B5 Pre-Emergence Efficacy—Test 2; conditions: 250 g/ha, evaluated after 13 days
Procedure: as §1

[7] = test system: Lolium perenne (LOLPE); assay: B2 Post-Emergence Efficacy—Test 2; conditions: post-emergence application, 250 g/ha, evaluated after 13 days (Test 2)
Procedure: (§2) B2 Post-Emergence Efficacy—Test 2 Seeds of a variety of test species are sown in standard soil in pots:—Solanum nigrum (SOLNI), Amaranthus retoflexus (AMARE), Setaria faberi (SETFA), Echinochloa crus-galli (ECHCG), Ipomoea hederacea (IPOHE), Lolium perenne (LOLPE). After 8 days cultivation (post-emergence) under controlled conditions in a glasshouse (at 24/16° C., day/night; 14 hours light; 65% humidity), the plants are sprayed with an aqueous spray solution derived from the formulation of the technical active ingredient in acetone/water (50:50) solution containing 0.5% Tween 20 (polyoxyethylene sorbitan monolaurate, CAS RN 9005-64-5). Compounds are applied at 250 g/ha. The test plants are then grown in a glasshouse under controlled conditions in a glasshouse (at 24/16° C., day/night; 14 hours light; 65% humidity) and watered twice daily. After 13 days, the test is evaluated for the percentage damage caused to the plant. The biological activities are assessed on a five point scale (5=80-100%; 4=60-79%; 3=40-59%; 2=20-39%; 1=0-19%). A blank value in the table is indicative that the compound was not tested on that species.

[8] = test system: Echinochloa crus-galli (ECHCG); assay: B2 Post-Emergence Efficacy—Test 2; conditions: post-emergence application, 250 g/ha, evaluated after 13 days (Test 2)
Procedure: as §2

[9] = test system: Amaranthus retoflexus (AMARE); assay: B2 Post-Emergence Efficacy—Test 2; conditions: post-emergence application, 250 g/ha, evaluated after 13 days (Test 2)
Procedure: as §2

[10] = test system: Ipomoea hederacea (IPOHE); assay: B2 Post-Emergence Efficacy—Test 2; conditions: post-emergence application, 250 g/ha, evaluated after 13 days (Test 2)
Procedure: as §2

[11] = test system: Setaria faberi (SETFA); assay: B2 Post-Emergence Efficacy—Test 2; conditions: post-emergence application, 250 g/ha, evaluated after 13 days (Test 2)
Procedure: as §2

[12] = test system: Solanum nigrum (SOLNI); assay: B2 Post-Emergence Efficacy—Test 2; conditions: post-emergence application, 250 g/ha, evaluated after 13 days (Test 2)
Procedure: as §2

Compound	Control of weed species after pre-emergence application, LOLPE (percentage damage, five point scale) [1]	Control of weed species after pre-emergence application, ECHCG (percentage damage, five point scale) [2]	Control of weed species after pre-emergence application, IPOHE (percentage damage, five point scale) [3]	Control of weed species after pre-emergence application, SETFA (percentage damage, five point scale) [4]	Control of weed species after pre-emergence application, AMARE (percentage damage, five point scale) [5]	Control of weed species after pre-emergence application, SOLNI (percentage damage, five point scale) [6]	percentage damage caused to the plant, five point scale, LOLPE [7]	percentage damage caused to the plant, five point scale, ECHCG [8]	percentage damage caused to the plant, five point scale, AMARE [9]	percentage damage caused to the plant, five point scale, IPOHE [10]	percentage damage caused to the plant, five point scale, SETFA [11]	percentage damage caused to the plant, five point scale, SOLNI [12]
CC(=O)Nc1ccc(CCc2c(Cl)ccc(F)c2-c2c(O)c(C)nn(C)c2=O)cc1 [Compound A-1.024]	4 (4=60-79%)	2 (2=20-39%)	0	5 (5=80-100%)	5 (5=80-100%)	5 (5=80-100%)	5 (5=80-100%)	4 (4=60-79%)	5 (5=80-100%)	5 (5=80-100%)	5 (5=80-100%)	5 (5=80-100%)
Cc1nn(C)c(=O)c(-c2c(F)ccc(Cl)c2CCc2ccc(S(=O)(=O)N(C)C)cc2)c1O [Compound A-1.025]	4 (4=60-79%)	5 (5=80-100%)	1 (1=0-19%)	5 (5=80-100%)	5 (5=80-100%)	5 (5=80-100%)	5 (5=80-100%)	5 (5=80-100%)	5 (5=80-100%)	5 (5=80-100%)	5 (5=80-100%)	5 (5=80-100%)
Cc1nn(C)c(=O)c(-c2c(F)ccc(Cl)c2CCc2ccc(C(C)(C)C)cc2)c1O [Compound A-1.026]	0	0	0	0	0	0	1 (1=0-19%)	0	4 (4=60-79%)	0	2 (2=20-39%)	4 (4=60-79%)
